Patent US9045524B2, “Selective caspase inhibitors and uses thereof” (NOVAGENESIS FOUNDATION, priority 2009, dated 2015)
Structures can show the parent of a compound that is named as a salt. Where two headings read alike, the source gives them in different places. Square brackets hold non-standard residues; d marks the D form. Peptide text beside a SMILES is read from it. * marks the point of attachment. Phg = N[C@H](C(=O)O)c1ccccc1; Cbz = O=C(OCc1ccccc1)*; OtBu = CC(C)(C)O*

Key:
[1] = target: Caspase-1 (Homo sapiens (Human), UniProt P29466); test: Caspase-1 Inhibitor Drug Screening Kit, fluorometric (AFC liberation); type: biochemical; conditions: 30-minute incubation at 37° C.; approximations of the average values; read-out: Caspase enzymatic activity, IC50 (uM) Caspase 1
Chain of Caspase-1 (P29466 120-404): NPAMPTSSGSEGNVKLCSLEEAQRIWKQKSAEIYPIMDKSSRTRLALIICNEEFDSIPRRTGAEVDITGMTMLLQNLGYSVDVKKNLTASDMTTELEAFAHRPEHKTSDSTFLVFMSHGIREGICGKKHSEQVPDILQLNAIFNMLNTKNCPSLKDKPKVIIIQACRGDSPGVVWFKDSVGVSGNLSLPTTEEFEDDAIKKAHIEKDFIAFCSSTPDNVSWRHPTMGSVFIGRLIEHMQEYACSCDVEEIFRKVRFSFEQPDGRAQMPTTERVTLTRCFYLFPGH
Protocol: (§1) The level of inhibition of caspase-1, -3, -5, -7, -9 activity was determined by comparison of the relative fluorescence intensity in samples with or without the compound.

[2] = test system: proteolytic cleavage of PARP (poly ADP-ribose polymerase) in Hela cells; test: Inhibition of staurosporine-induced PARP cleavage in live Hela cells; type: cell-based; conditions: for inhibition at 50 µM: Homo sapiens, HeLa
Protocol: To test the efficacy of caspase-3 inhibitors at the cellular level, the ability of selected compounds to inhibit the proteolytic cleavage of PARP (poly ADP-ribose polymerase) was evaluated in live Hela cells.
Briefly, in this assay Hela cells are seeded in 96 well plates and incubated for 4 hours with staurosporine, a well characterized inducer of apoptosis, alone or together with different concentrations of compound (50, 25, 10 and 3 uM). After formaldehyde-based fixation, the cells are stained with a fluorescein-labeled anti-cleaved PARP antibody (Cell signaling, Cat#: 9547) and counterstained with Hoechst33342 (Invitrogen, Cat#: H3570) to mark all nuclei. Fluorescence images are taken on a Cellomics™ microscope system (Thermo Scientific, Pittsburgh, USA) with the Hoechst stain in the blue channel and the cleaved PARP antibody stain in the green channel. The percentage of cleaved PARP positive cells is determined by calculating the ratio between nuclei with a cleaved PARP antibody staining above a certain threshold and all (Hoechst positive) nuclei. The efficacy of caspase-3 inhibition is determined by calculating the ratio between cleaved PARP positive cells after staurosporine incubation together with compounds and staurosporine incubation without compounds.

[3] = target: Caspase-9 (Homo sapiens (Human), UniProt P55211); test: Caspase-9 Inhibitor Drug Screening Kit, fluorometric (AFC liberation); type: biochemical; conditions: 30-minute incubation at 37° C.; approximations of the average values; read-out: Caspase enzymatic activity, IC50 (uM) Caspase 9
Chain of Caspase-9 (P55211 whole entry): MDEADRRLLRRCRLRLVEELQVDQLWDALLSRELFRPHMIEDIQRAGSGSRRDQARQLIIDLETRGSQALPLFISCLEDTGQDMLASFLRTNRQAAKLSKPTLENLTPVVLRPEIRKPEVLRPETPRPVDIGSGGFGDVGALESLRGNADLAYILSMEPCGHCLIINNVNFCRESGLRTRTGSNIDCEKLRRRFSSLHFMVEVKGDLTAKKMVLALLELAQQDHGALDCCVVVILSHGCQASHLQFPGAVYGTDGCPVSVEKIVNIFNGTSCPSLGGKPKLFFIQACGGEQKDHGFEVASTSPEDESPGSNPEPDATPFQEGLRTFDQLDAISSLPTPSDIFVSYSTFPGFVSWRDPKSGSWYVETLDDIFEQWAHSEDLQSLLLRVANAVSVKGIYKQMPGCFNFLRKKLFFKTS
Protocol: as §1

[4] = test system: Glo3/7; test: Glo3/7 assay; type: biochemical
[5] = target: Caspase-3 (Homo sapiens (Human), UniProt P42574); test: Caspase-3 Inhibitor Drug Screening Kit, fluorometric (AFC liberation); type: biochemical
Chain of Caspase-3 (P42574 29-277): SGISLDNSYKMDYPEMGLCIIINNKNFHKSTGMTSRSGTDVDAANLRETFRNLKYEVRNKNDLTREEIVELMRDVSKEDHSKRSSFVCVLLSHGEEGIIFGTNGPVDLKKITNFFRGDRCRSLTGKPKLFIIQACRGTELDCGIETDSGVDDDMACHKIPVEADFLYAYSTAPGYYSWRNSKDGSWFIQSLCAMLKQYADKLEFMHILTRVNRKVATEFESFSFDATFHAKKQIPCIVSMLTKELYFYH
Protocol: as §1

[6] = target: Caspase-7 (Homo sapiens (Human), UniProt P55210); test: Caspase-7 Inhibitor Drug Screening Kit, fluorometric (AFC liberation); type: biochemical; conditions: 30-minute incubation at 37° C.; approximations of the average values; read-out: Caspase enzymatic activity, IC50 (uM) Caspase 7
Chain of Caspase-7 (P55210 whole entry): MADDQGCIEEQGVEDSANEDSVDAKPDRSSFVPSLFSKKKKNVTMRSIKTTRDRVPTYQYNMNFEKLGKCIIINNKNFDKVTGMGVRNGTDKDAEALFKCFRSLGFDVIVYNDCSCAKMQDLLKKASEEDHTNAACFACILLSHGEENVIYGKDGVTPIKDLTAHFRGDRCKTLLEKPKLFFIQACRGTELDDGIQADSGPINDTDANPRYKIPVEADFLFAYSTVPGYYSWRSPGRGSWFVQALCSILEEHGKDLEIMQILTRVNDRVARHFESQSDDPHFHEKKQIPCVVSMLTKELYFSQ
Protocol: as §1

[7] = target: Caspase-5 (Homo sapiens (Human), UniProt P51878); test: Caspase-5 Inhibitor Drug Screening Kit, fluorometric (AFC liberation); type: biochemical; conditions: 30-minute incubation at 37° C.; approximations of the average values; read-out: Caspase enzymatic activity, IC50 (uM) Caspase 5
Chain of Caspase-5 (P51878 137-434): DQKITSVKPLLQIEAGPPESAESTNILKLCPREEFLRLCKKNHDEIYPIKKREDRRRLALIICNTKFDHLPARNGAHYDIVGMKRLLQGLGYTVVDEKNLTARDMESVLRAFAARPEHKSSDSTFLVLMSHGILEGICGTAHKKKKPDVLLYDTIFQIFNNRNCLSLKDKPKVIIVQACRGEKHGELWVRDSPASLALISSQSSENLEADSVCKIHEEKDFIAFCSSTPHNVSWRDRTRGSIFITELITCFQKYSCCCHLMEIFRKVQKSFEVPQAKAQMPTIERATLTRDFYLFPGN
Protocol: as §1

[8] = 4 h, read-out: % inhibition of PARP cleavage at 50 uM compound, Hela cells, staurosporine 4 hours, 50 uM compound
[9] = Hela cells, 50 uM, read-out: % of inhibition with compound relative to DEVDFMK
[10] = 30-minute incubation at 37° C., approximations of the average values, read-out: Caspase enzymatic activity, IC50 (uM) Caspase 3

Row | IC50 [1] [µM] | IC50 [3] [µM] | IC50 [4] [µM] | activity against caspase-3 [5] | IC50 [5, 10] [µM] | IC50 [6] [µM] | IC50 [7] [µM] | IC50 ([5]; read-out: IC50 caspase-3) [µM] | Structure (SMILES) | inhibition at 50 µM [2, 8] [%] | inhibition at 50 µM [2, 9] [%] | effectivity in inhibiting PARP cleavage ([2]; Hela cells, staurosporine)
1 | > 3.33 | > 3.33 | > 50 | devoid of any activity | > 2 | > 3.33 | > 3.33 |  | CC(C)[C@H](NC(=O)[C@@H](NC(=O)[C@H](CC(=O)OC(C)(C)C)NC(=O)OCc1ccccc1)c1ccccc1)C(=O)O [Compound 16, Z-Asp(β-tert-butyl)-Phg-Val-OH] (Cbz-Asp(OtBu)-[Phg]-Val-OH) | 13 | 23 | 
2 | > 3.33 | > 3.33 | > 50 | devoid of any activity | > 10 | > 3.33 | > 3.33 |  | CC(C)(C)OC(=O)C[C@H](N)/C=C/S(C)(=O)=O.Cc1ccc(S(=O)(=O)O)cc1 [Compound 33, Asp(β-tert-butyl)methyl Vinyl Sulfone Tosyl Salt] | 30 | 50 | 
3 | > 3.33 | > 3.33 | > 50 |  | > 2 | > 3.33 | > 3.33 |  | CC(C)(C)OC(=O)C[C@H](N)/C=C/S(=O)(=O)c1ccccc1 [Compound 37, Asp-vinyl Phenyl Sulfone Salt Form] | 20 | 35 | 
4 | > 3.33 | 1.2 | 0.1 |  | 0.01 | 0.4 | > 3.33 | 0.008 to 0.03 | CC(C)[C@H](NC(=O)[C@H](Cc1ccc2ccccc2n1)NC(=O)[C@H](CC(=O)O)NC(=O)OCc1ccccc1)C(=O)N[C@H](/C=C(\Cl)S(C)(=O)=O)CC(=O)O [Compound 48, Z-Asp-Ala(2′-quinolyl)-Val-Asp-achlorovinyl methylsulfone] |  |  | showing effectivity especially relative to DEVD-fmk
5 | > 3.33 | > 3.33 | 40 |  | > 3.33 | > 3.33 | > 3.33 |  | Cc1ccc(S(=O)(=O)N[C@@H](Cc2ccc3ccccc3n2)C(=O)N[C@H](C(=O)N[C@H](/C=C(\Cl)S(C)(=O)=O)CC(=O)O)C(C)C)cc1 [Compound 50] | 0 | 0 | 
6 | > 3.33 | > 3.33 | 1.4 |  | 0.2 | > 3.33 | > 3.33 |  | CC(C)[C@H](NC(=O)[C@H](Cc1ccc2ccccc2n1)NC(=O)[C@H](CC(=O)OC(C)(C)C)NC(=O)OCc1ccccc1)C(=O)N[C@H](/C=C/S(=O)(=O)N1CCOCC1)CC(=O)OC(C)(C)C [Compound 66, Z-Asp(β-tert-Butyl)-Ala(2′-quinolyl)-Val-Asp(β-tert-Butyl)morpholine Vinyl Sulfone] |  | 35 | 
7 | > 3.33 | > 3.33 | 1.4 |  | 0.1 | 1.8 | > 10 |  | CC(C)[C@H](NC(=O)[C@@H](NC(=O)[C@H](CC(=O)O)NC(=O)OCc1ccccc1)c1ccccc1)C(=O)N[C@H](/C=C/S(=O)(=O)c1ccccc1)CC(=O)O [Compound 69, Z-Asp-Phg-Val-Asp-phenyl Vinylsulfone] | 20 | 35 | 
8 | > 10 | > 10 | 0.3 |  |  | 8.9 | > 10 |  | CC(C)[C@H](NC(=O)C(Cc1ccc2ccccc2n1)NC(=O)[C@H](CC(=O)O)NC(=O)OCc1ccccc1)C(=O)N[C@H](/C=C/S(C)(=O)=O)CC(=O)O (stereo partly shown) [Compound 71, Z-Asp-(D,L Ala(2′-quinolyl))-Val-Aspmethyl Vinylsulfone] | 20 | 35 | 
9 | > 3.33 | > 3.33 | 0.04 |  | 0.03 | 0.7 | > 3.33 |  | CC(C)[C@H](NC(=O)[C@H](Cc1ccc(O)cc1)NC(=O)[C@H](CC(=O)O)NC(=O)OCc1ccccc1)C(=O)N[C@H](/C=C/S(C)(=O)=O)CC(=O)O [Compound 76, Z-Asp-Tyr-Val-Aspmethyl vinyl sulfone] | > 50 |  | 
10 | 0.5 | 1.6 | 3.7 |  | 0.3 | > 5 | > 3 |  | CC(C)[C@H](NC(=O)[C@H](CCC(=O)O)NC(=O)[C@H](Cc1ccc(O)cc1)NC(=O)OCc1ccccc1)C(=O)N[C@H](/C=C/S(C)(=O)=O)CC(=O)O [Compound 82] | 15 | 15 | 
11 | > 3.33 | > 3.33 | 0.3 |  | 0.03 | 1 | > 3.33 |  | CC(C)[C@H](NC(=O)[C@H](Cc1ccccn1)NC(=O)[C@H](CC(=O)O)NC(=O)OCc1ccccc1)C(=O)N[C@H](/C=C/S(=O)(=O)c1ccccc1)CC(=O)O [Compound 85] |  | 45 | 
12 | > 3.33 | > 3.33 | > 50 | devoid of any activity | > 10 | > 3.33 | > 3.33 |  | CS(=O)(=O)/C=C/[C@@H](N)CC(=O)O.Cc1ccc(S(=O)(=O)O)cc1 [Compound 93, AspVSmethyl] | 15 | 25 | 
13 | 1.3 | > 10 | > 50 |  | > 10 | > 10 | > 3.33 |  | CC(C)[C@H](NC(=O)[C@H](Cc1ccc(O)cc1)NC(=O)OCc1ccccc1)C(=O)N[C@@H](C)C(=O)N[C@H](/C=C/S(=O)(=O)c1ccccc1)CC(=O)O [Compound 96, z-Tyr-Val-Ala-AspVS phenyl] | 1 | 2 | 
